Measurements taken from patent publication US8048862B2, “Macrocyclic inhibitors of hepatitis C virus replication” (priority 2008, dated 2011).
Read-outs that look alike come from different tables or passages of the source.

Assays:
[1] = target: NS3/NS4 complexes (Hepatitis C virus genotype 1a, UniProt P27958); experiment: NS3/NS4 inhibition activity (IC50); format: biochemical
In short: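 NS3/NS4 complexes were formed and compound inhibitory concentrations determined at ambient temperature (23 °C). The buffer contained 50 mM Tris-HCl pH 7.5, 15% glycerol, 0.6 mM LDAO, 25 μM NS4A peptide and 10 mM DTT.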

[2] = system: hepatitis C replicon; experiment: hepatitis C replicon EC50; format: cell-based; details: Hepatitis C virus
From the text: NS3-NS4 inhibition activity can be determined using known assay methods.

[3] = Table 2, hepatitis C replicon, read-out: EC50
[4] = Table 3, hepatitis C replicon, read-out: EC50

NS3/NS4 complexes, sequence (P27958 1027-1657): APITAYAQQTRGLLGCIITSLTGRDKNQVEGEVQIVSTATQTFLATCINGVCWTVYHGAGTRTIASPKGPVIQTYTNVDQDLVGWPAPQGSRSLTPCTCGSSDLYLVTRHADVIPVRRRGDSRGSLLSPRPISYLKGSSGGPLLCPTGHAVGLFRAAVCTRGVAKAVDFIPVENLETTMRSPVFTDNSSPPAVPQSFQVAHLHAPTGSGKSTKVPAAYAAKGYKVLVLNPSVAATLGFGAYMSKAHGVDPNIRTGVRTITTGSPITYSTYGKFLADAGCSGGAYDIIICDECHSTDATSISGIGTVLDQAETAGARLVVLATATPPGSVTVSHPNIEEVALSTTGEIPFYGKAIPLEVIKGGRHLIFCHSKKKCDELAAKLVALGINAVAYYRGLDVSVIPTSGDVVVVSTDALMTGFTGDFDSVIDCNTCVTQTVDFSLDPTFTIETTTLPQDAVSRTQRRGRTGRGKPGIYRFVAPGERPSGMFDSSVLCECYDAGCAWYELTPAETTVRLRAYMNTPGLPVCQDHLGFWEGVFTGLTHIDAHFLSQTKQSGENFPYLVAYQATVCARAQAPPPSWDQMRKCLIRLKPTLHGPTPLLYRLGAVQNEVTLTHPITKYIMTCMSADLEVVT
NS3/NS4 complexes, sequence (P27958 1658-1711): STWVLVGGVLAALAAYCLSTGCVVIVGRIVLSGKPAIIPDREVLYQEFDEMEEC

## CC1(S(=O)(=O)NC(=O)[C@@]23C[C@H]2/C=C\CCCCC[C@H](Nc2cc(C(F)(F)F)cc(C(F)(F)F)c2)C(=O)N2C[C@H](Oc4nc5ccccc5s4)C[C@H]2C(=O)N3)CC1 [Compound 336]
[1]; Table 2, read-out: IC50
  IC50: < 10 nM
[2]; [3]
  EC50: 75 to 500 nM

## CC1(S(=O)(=O)NC(=O)[C@@]23C[C@H]2/C=C\CCCCC[C@H](Nc2ccc(F)c(C(F)(F)F)c2)C(=O)N2C[C@H](Oc4nccc5ccccc45)C[C@H]2C(=O)N3)CC1 [Compound 347]
[1]; Table 2, read-out: IC50
  IC50: < 10 nM
[2]; [3]
  EC50: < 10 nM

## Cc1ccc2nc(O[C@@H]3C[C@H]4C(=O)N[C@]5(C(=O)NS(=O)(=O)N(C)C)C[C@H]5/C=C\CCCCC[C@H](NC(=O)OC(C)(C)C)C(=O)N4C3)n(C(C)C)c2c1 [Compound 1139]
[1]; Table 3, read-out: IC50
  IC50: < 10 nM
[2]; [4]
  EC50: < 10 nM

## CC(C)(C)OC(=O)N[C@H]1CCCCC/C=C\[C@@H]2C[C@@]2(C(=O)NS(=O)(=O)C2(C)CC2)NC(=O)[C@@H]2C[C@@H](Oc3nc4ccccc4s3)CN2C1=O [Compound 1008]
[1]; Table 3, read-out: IC50
  IC50: < 10 nM
[2]; [4]
  EC50: < 10 nM

## CC(C)(C)OC(=O)N[C@H]1CCCCC/C=C\[C@@H]2C[C@@]2(C(=O)NS(=O)(=O)CC(=O)Nc2ccccc2)NC(=O)[C@@H]2C[C@@H](OC(=O)N3Cc4cccc(F)c4C3)CN2C1=O [Compound 1082]
[1]; Table 3, read-out: IC50
  IC50: < 10 nM
[2]
  EC50: > 100 nM

## CCn1c(O[C@@H]2C[C@H]3C(=O)N[C@]4(C(=O)NS(=O)(=O)N(C)C)C[C@H]4/C=C\CCCCC[C@H](NC(=O)OC(C)(C)C)C(=O)N3C2)nc2ccccc21 [Compound 1132]
[1]; Table 3, read-out: IC50
  IC50: < 10 nM
[2]; [4]
  EC50: < 10 nM

## CO[C@@H]1C[C@H]2C(=O)N[C@]3(C(=O)NS(=O)(=O)C4(C)CC4)C[C@H]3/C=C\CCCCC[C@H](NC(=O)OC(C)(C)C)C(=O)N2C1 [Compound 1091]
[1]; Table 3, read-out: IC50
  IC50: > 100 nM
[2]; [4]
  EC50: > 100 nM

## CC(C)(C)OC(=O)N[C@H]1CCCCC/C=C\[C@@H]2C[C@@]2(C(=O)NS(=O)(=O)C2CC2)NC(=O)[C@@H]2C[C@@H](Oc3nc4cc(Cl)ccc4o3)CN2C1=O [Compound 1032]
[1]; Table 3, read-out: IC50
  IC50: < 10 nM
[2]; [4]
  EC50: > 100 nM

## CC(C)(C)OC(=O)N[C@H]1CCCCC/C=C\[C@@H]2C[C@@]2(C(=O)NS(=O)(=O)C2CC2)NC(=O)[C@@H]2C[C@@H](Oc3nc4ccccc4n3Cc3ccccc3)CN2C1=O [Compound 1051]
[1]; Table 3, read-out: IC50
  IC50: < 10 nM
[2]; [4]
  EC50: 10 to 100 nM

## CCn1c(O[C@@H]2C[C@H]3C(=O)N[C@]4(C(=O)NS(=O)(=O)C5(C)CC5)C[C@H]4CCCCCCC[C@H](NC(=O)OC(C)(C)C)C(=O)N3C2)nc2ccccc21 [Compound 1080]
[1]; Table 3, read-out: IC50
  IC50: < 10 nM
[2]; [4]
  EC50: < 10 nM

## CC1(S(=O)(=O)NC(=O)[C@@]23C[C@H]2/C=C\CCCCC[C@H](Nc2ccc(F)c(F)c2)C(=O)N2C[C@H](Oc4nccc5ccccc45)C[C@H]2C(=O)N3)CC1 [Compound 381]
[1]; Table 2, read-out: IC50
  IC50: < 10 nM
[2]; [3]
  EC50: 10 to 75 nM

## O=C1N[C@]2(C(=O)O)C[C@H]2/C=C\CCCCC[C@H](Nc2cccc(Cl)c2)C(=O)N2C[C@H](Oc3nc4ccccc4s3)C[C@@H]12 [Compound 335]
[1]; Table 2, read-out: IC50
  IC50: 10 to 75 nM
[2]; [3]
  EC50: > 500 nM

## CC(C)(C)OC(=O)N[C@H]1CCCCC/C=C\[C@@H]2C[C@@]2(C(=O)NS(=O)(=O)C2CC2)NC(=O)[C@@H]2C[C@@H](Oc3nc4cccc(F)c4o3)CN2C1=O [Compound 1038]
[1]; Table 3, read-out: IC50
  IC50: < 10 nM
[2]; [4]
  EC50: 10 to 100 nM

## CC1(S(=O)(=O)NC(=O)[C@@]23C[C@H]2/C=C\CCCCC[C@H](Nc2ccc(-c4ccccc4)cc2)C(=O)N2C[C@H](Oc4nc5ccccc5s4)C[C@H]2C(=O)N3)CC1 [Compound 326]
[1]; Table 2, read-out: IC50
  IC50: < 10 nM
[2]; [3]
  EC50: > 500 nM

## COc1ccc2c(O[C@@H]3C[C@H]4C(=O)N[C@]5(C(=O)NS(=O)(=O)N(C)C)C[C@H]5/C=C\CCCCC[C@H](Nc5cccc(F)c5)C(=O)N4C3)cc(-c3nc(C(C)C)cs3)nc2c1C [Compound 417]
[1]; Table 2, read-out: IC50
  IC50: < 10 nM
[2]; [3]
  EC50: < 10 nM

## CC(C)(C)Cn1c(O[C@@H]2C[C@H]3C(=O)N[C@]4(C(=O)NS(=O)(=O)C5(C)CC5)C[C@H]4/C=C\CCCCC[C@H](Nc4cc(F)cc(C(F)(F)F)c4)C(=O)N3C2)nc2ccccc21 [Compound 401]
[1]; Table 2, read-out: IC50
  IC50: < 10 nM
[2]; [3]
  EC50: 75 to 500 nM

## CCn1c(O[C@@H]2C[C@H]3C(=O)N[C@]4(C(=O)NS(=O)(=O)C5(C)CC5)C[C@H]4/C=C\CCCCC[C@H](Nc4cc(F)cc(C(F)(F)F)c4)C(=O)N3C2)nc2ccccc21 [Compound 319]
[1]; Table 2, read-out: IC50
  IC50: < 10 nM
[2]; [3]
  EC50: < 10 nM

## COc1ccc2c(O[C@@H]3C[C@H]4C(=O)N[C@]5(C(=O)NS(=O)(=O)C6(C)CC6)C[C@H]5/C=C\CCCCC[C@H](Nc5cccc(C(F)(F)F)c5)C(=O)N4C3)cc(-c3nc(C(C)C)cs3)nc2c1C [Compound 360]
[1]; Table 2, read-out: IC50
  IC50: < 10 nM
[2]; [3]
  EC50: < 10 nM

## CC(C)(C)c1csc(N[C@H]2CCCCC/C=C\[C@@H]3C[C@@]3(C(=O)NS(=O)(=O)C3(C)CC3)NC(=O)[C@@H]3C[C@@H](Oc4nc5ccccc5s4)CN3C2=O)n1 [Compound 231]
[1]; Table 2, read-out: IC50
  IC50: < 10 nM
[2]; [3]
  EC50: 10 to 75 nM

## CC1(S(=O)(=O)NC(=O)[C@@]23C[C@H]2/C=C\CCCCC[C@H](Nc2cccc(F)c2)C(=O)N2C[C@H](Oc4nc5ccccc5s4)C[C@H]2C(=O)N3)CC1 [Compound 235]
[1]; Table 2, read-out: IC50
  IC50: < 10 nM
[2]; [3]
  EC50: 10 to 75 nM

## CC(=O)N(Cc1ccccc1)[C@H]1CCCCC/C=C\[C@@H]2C[C@@]2(C(=O)NS(=O)(=O)C2CC2)NC(=O)[C@@H]2C[C@@H](Oc3nc4ccccc4s3)CN2C1=O [Compound 316]
[1]; Table 2, read-out: IC50
  IC50: 10 to 75 nM
[2]; read-out: EC50 nM
  EC50: > 500 nM

## O=C1N[C@]2(C(=O)NS(=O)(=O)C3CC3)C[C@H]2/C=C\CCCCC[C@H](Nc2ccccc2)C(=O)N2C[C@H](Oc3nc4ccccc4s3)C[C@@H]12 [Compound 157]
[1]; Table 2, read-out: IC50
  IC50: < 10 nM
[2]; [3]
  EC50: 10 to 75 nM

## CC(C)Cn1c(O[C@@H]2C[C@H]3C(=O)N[C@]4(C(=O)NS(=O)(=O)N(C)C)C[C@H]4/C=C\CCCCC[C@H](NC(=O)OC(C)(C)C)C(=O)N3C2)nc2ccccc21 [Compound 1129]
[1]; Table 3, read-out: IC50
  IC50: < 10 nM
[2]; [4]
  EC50: < 10 nM

## CC1(S(=O)(=O)NC(=O)[C@@]23C[C@H]2/C=C\CCCCC[C@H](Nc2ccccc2F)C(=O)N2C[C@H](OC(=O)N4Cc5cccc(F)c5C4)C[C@H]2C(=O)N3)CC1 [Compound 1124]
[1]; Table 3, read-out: IC50
  IC50: < 10 nM
[2]; [4]
  EC50: 10 to 100 nM

## Cc1cccc2nc(O[C@@H]3C[C@H]4C(=O)N[C@]5(C(=O)NS(=O)(=O)C6CC6)C[C@H]5/C=C\CCCCC[C@H](NC(=O)OC(C)(C)C)C(=O)N4C3)sc12 [Compound 1040]
[1]; Table 3, read-out: IC50
  IC50: < 10 nM
[2]; [4]
  EC50: < 10 nM

## CC1(S(=O)(=O)NC(=O)[C@@]23C[C@H]2/C=C\CCCCC[C@H](Nc2ccccc2)C(=O)N2C[C@H](Oc4nc5ccccc5s4)C[C@H]2C(=O)N3)CC1 [Compound 213]
[1]; Table 2, read-out: IC50
  IC50: < 10 nM
[2]; [3]
  EC50: 10 to 75 nM

## CC(C)(C)OC(=O)N[C@H]1CCCCC/C=C\[C@@H]2C[C@@]2(C(=O)NOc2ccccc2)NC(=O)[C@@H]2C[C@@H](Oc3nc4ccccc4o3)CN2C1=O [Compound 1027]
[1]; Table 3, read-out: IC50
  IC50: > 100 nM
[2]; [4]
  EC50: > 100 nM

## CC1(S(=O)(=O)NC(=O)[C@@]23C[C@H]2/C=C\CCCCC[C@H](Nc2ccc(Cl)c(Cl)c2)C(=O)N2C[C@H](Oc4nc5ccccc5s4)C[C@H]2C(=O)N3)CC1 [Compound 334]
[1]; Table 2, read-out: IC50
  IC50: < 10 nM
[2]; [3]
  EC50: 75 to 500 nM

## Cc1cccc2c1nc(O[C@@H]1C[C@H]3C(=O)N[C@]4(C(=O)NS(=O)(=O)N(C)C)C[C@H]4/C=C\CCCCC[C@H](NC(=O)OC(C)(C)C)C(=O)N3C1)n2C(C)C [Compound 1140]
[1]; Table 3, read-out: IC50
  IC50: < 10 nM
[2]; [4]
  EC50: < 10 nM

## COc1ccc2c(O[C@@H]3C[C@H]4C(=O)N[C@]5(C(=O)NS(=O)(=O)C6(C)CC6)C[C@H]5/C=C\CCCCC[C@H](Nc5ccc(C#N)cc5)C(=O)N4C3)cc(-c3nc(C(C)C)cs3)nc2c1C [Compound 481]
[1]; Table 2, read-out: IC50
  IC50: < 10 nM
[2]; [3]
  EC50: < 10 nM

## Cc1ccc2c(c1)nc(O[C@@H]1C[C@H]3C(=O)N[C@]4(C(=O)NS(=O)(=O)C5(C)CC5)C[C@H]4/C=C\CCCCC[C@H](Nc4ccccc4)C(=O)N3C1)n2C(C)C [Compound 470]
[1]; Table 2, read-out: IC50
  IC50: < 10 nM
[2]; [3]
  EC50: 10 to 75 nM

## CC1(S(=O)(=O)NC(=O)[C@@]23C[C@H]2/C=C\CCCCC[C@H](Nc2cccc(OC(F)(F)F)c2)C(=O)N2C[C@H](OC(=O)N4Cc5cccc(F)c5C4)C[C@H]2C(=O)N3)CC1 [Compound 1115]
[1]; Table 3, read-out: IC50
  IC50: < 10 nM
[2]; [4]
  EC50: < 10 nM

## CC1(S(=O)(=O)NC(=O)[C@@]23C[C@H]2/C=C\CCCCC[C@H](Nc2cccc(C(F)(F)F)c2)C(=O)N2C[C@H](Oc4nc5ccc(Cl)cc5s4)C[C@H]2C(=O)N3)CC1 [Compound 226]
[1]; Table 2, read-out: IC50
  IC50: < 10 nM
[2]; [3]
  EC50: 75 to 500 nM

## CCn1c(O[C@@H]2C[C@H]3C(=O)N[C@]4(C(=O)NS(=O)(=O)C5(C)CC5)C[C@H]4/C=C\CCCCC[C@H](Nc4ccccc4)C(=O)N3C2)nc2ccccc21 [Compound 395]
[1]; Table 2, read-out: IC50
  IC50: < 10 nM
[2]; [3]
  EC50: < 10 nM

## CC(=O)Nc1ccc(N[C@H]2CCCCC/C=C\[C@@H]3C[C@@]3(C(=O)NS(=O)(=O)C3(C)CC3)NC(=O)[C@@H]3C[C@@H](OC(=O)N4Cc5cccc(F)c5C4)CN3C2=O)cc1 [Compound 1121]
[1]; Table 3, read-out: IC50
  IC50: < 10 nM
[2]; [4]
  EC50: 10 to 100 nM
